In brackets after ≈: the same amount, converted by molar mass. Where two headings read alike, the source gives them in different places.
Experiments:
E. coli DH5α = experiment: Disc diffusion assay to assess antimicrobial activities (inhibition of bacterial growth); assay type: cell-based; details: read-out: Minimal inhibitory concentration
Description: The antibacterial activities of test compounds were evaluated using the disc diffusion method (Kavanagh, Academic Press, Inc., New York, 1963, 125-140; Pomares et al, J Bacteriol. 2008, 30 190, 4328-4334). Briefly, filter-paper discs impregnated with 10 μl of two-fold serial dilutions of test compounds were placed onto LB solid medium Petri dishes. Then, aliquots (50 μl) of an E. coli DH5α culture in stationary phase were mixed with 3 ml of top agar (0.7% agar) and overlaid onto the plates. After overnight incubation at 37° C., the plates were examined for different degrees of inhibition. The antibacterial efficacy of a test compound was estimated by the Minimum Inhibitory Concentration (MIC) assay that determines the lowest concentration inhibiting visible growth of bacteria. Each test was performed in duplicate vs. the reference compound, doxycycline (“DOX”).

[1] = system: dopaminergic midbrain neurons (TH+); experiment: Neuroprotection of TH+ dopaminergic neurons in primary mouse midbrain cultures (spontaneous oxidative stress); assay type: cell-based; details: Neuron, 168 h, cultured for 7 days, estimated graphically, read-out: EC50 (concentration protecting 50% of TH+ neurons)
Description: The inventors have further shown that compounds 1-H and 1-Me exert robust and concentration-dependent neuroprotective effects in a cell model in which the dopaminergic midbrain neurons, vulnerable in Parkinson's disease, degenerate further to a spontaneous oxidative stress of low intensity resulting from the presence of catalytic iron in the culture medium (Guerreiro et al, J Neurochem. 2009; 109(4):1118-28; Rousseau et al, Mol Pharmacol. 2013; 84(6):888-98).
Cultures were carried out using embryos of Swiss mice (Janvier LABS, Le Genest St. Isles, 30 France), collected at 13.5 days of gestation. The experimental procedures were performed in accordance with Directive 2010/63/EU of the Council of the European Union, using a protocol validated by the Charles Darwin ethics committee no. 5. The protocol is based on techniques reported previously (Rousseau et al, 2013, supra; Lavaur et al, J Neurochem. 2017; 142(1):14-28), using an additional step of trypsinization with an EDTA (2mM)-trypsin (0.05%) solution to facilitate the dissociation of brain tissue. The cells in suspension are distributed in 48-well multi-well dishes (Nunc; ThermoFisher Scientific), at a density of 50-80. 10^3 cells/cm^2, using Dulbecco's Modified Eagle's Medium/Nutrient Mixture F-12 Ham (Sigma-Aldrich), supplemented with 10% fetal calf serum. After 2 hours, the cultures are washed completely and placed in the presence of the same medium containing only 20 μg/ml of bovine insulin. The cultures are also treated with cytarabine (1.5 μM) on the first day in vitro and on the following day to reduce the number of glial cells in the cultures.
These cultures contain between 1 to 2% of dopaminergic neurons. […] Assessment of the number of dopaminergic neurons is done by counting TH^+ neurons with a Nikon Eclipse Ti-U inverted microscope.
The reference molecule used to prevent the loss of dopaminergic neurons is apotransferrin (APO; Sigma Aldrich; 100 μg/ml), a protein that chelates ferric iron in culture medium.

[2] = target: human recombinant monomeric α-Synuclein (Homo sapiens, UniProt P37840); experiment: Thioflavin-T fluorescence assay of α-Synuclein amyloid aggregation; assay type: biochemical; details: test compound 100 μM; 70 μM α-Synuclein; after 144 hours of shaking; percent of optimal response without tetracycline
Description: Aggregation studies were performed at 37° C. on samples containing 70 μM human recombinant monomeric α-Synuclein that were submitted to constant orbital agitation (Thermomixer Comfort, Eppendorf) at 600 rpm in the absence or in the presence of test compounds, at 100 μM. The formation of α-Synuclein aggregated species was monitored using the fluorescence probe Thioflavin-T (LeVine, Methods Enzymol. 1999, 309, 274-284; González-Lizárraga, et al. Sci Rep. 2017, 7, 41755), at a concentration of 25 μM. Changes in emission fluorescence were measured after 144 hrs of continuous shaking, at an excitation wavelength of 450 nm using a Horiba FluoroMax 4 spectrometer.

[3] = E. coli DH5α, disc diffusion, overnight incubation at 37° C., assayed twice
[4] = Escherichia coli, E. coli DH5α, disc diffusion, overnight incubation at 37° C., assayed twice

NC(=O)C1=C(O)C[C@@H]2C[C@H]3C(=C(O)C2C1=O)C(=O)c1c(O)ccc(Cl)c1[C@H]3O (stereo partly drawn) [1-H, 7-chloro-3,6,10,12-tetrahydroxy-1,11-dioxo-1,4,4α,5,5α,6,11,12α-octahydrotetracene-2-carboxamide] was tested, and the MIC (E. coli DH5α; [3]) was over 2000 µM, the MIC (E. coli DH5α; Escherichia coli) was over 2000 µM and the EC50 [1] was 810 nM. For the same molecule, the “residual Thioflavin-T fluorescence level” value [2] was 1.5%.

C[C@@]1(O)c2c(Cl)ccc(O)c2C(=O)C2=C(O)C3C(=O)C(C(N)=O)=C(O)C[C@@H]3C[C@@H]21 (stereo partly drawn) [1-Me, 7-chloro-3,6,10,12-tetrahydroxy-6-methyl-1,11-dioxo-1,4,4α,5,5α, 6,11,12α-octahydrotetracene-2-carboxamide] gave an MIC (E. coli DH5α; [3]) of over 2000 µM, an MIC (E. coli DH5α; [4]) of over 2000 µM and an EC50 [1] of 2010 nM. For the same molecule, the “residual Thioflavin-T fluorescence level” value [2] was 13.5%.

C[C@H]1c2cccc(O)c2C(=O)C2=C(O)[C@]3(O)C(=O)C(C(N)=O)=C(O)[C@@H](N(C)C)[C@@H]3[C@@H](O)[C@@H]21 [DOX, doxycycline, reference compound] was tested, and the MIC (E. coli DH5α; [4]) was 62.5 µM (≈ 27.8 µg/mL), the EC50 [1] was 5200 nM and the “residual Thioflavin-T fluorescence level” value [2] was 21.1%.

Source: US20230390309A1, “TETRACYCLINE DERIVATIVES FOR TREATING NEURODEGENERATIVE OR NEUROINFLAMMATORY DISEASES” (INSTITUT DU CERVEAU ET DE LA MOELLE EPINIERE, priority 2020, published 2023)
